The text below walks through data of patent US20250034136A1 (Nimbus Wadjet, Inc., priority 2023, published 2025).

Where two headings read alike, the source gives them in different places.

Assay [1] concerns p21 induction in HCT116 cells. Description: p21 induction in HCT116 cells. The assay is classed as cell-based. As to conditions: Homo sapiens, HCT-116, 24 h, read-out: P21_EC50. The procedure, abridged: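 HCT116 cells, 2,000/well, treated 24 h at 37 °C with 11-point compound dilutions in duplicate. Fixed, then immunostained for p21 and GAPDH and read by near-IR imaging at 800/700 nm. Normalized to DMSO (low) and reference WRN inhibitor (high) controls; EC50 from non-linear regression.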

Assay [2] concerns the target WRN (BV08), human Werner helicase (Uniprot Q14191, amino acids 517-1235 with L1074F point mutation) (Homo sapiens (Human), UniProt Q14191, L1074F). Description: WRN (BV08) ADP-Glo assay. In kind it is biochemical. As to conditions: class symbols A-E, read-out: ADP-Glo_hWRN_IC50.
The mark [3] stands for this setting: HCT116 cells, 24 h compound incubation.

Chain of WRN (BV08), human Werner helicase (Uniprot Q14191, amino acids 517-1235 with L1074F point mutation) (Q14191 other isoform, or with tags, fused parts or gaps L1074F (already in the parent)): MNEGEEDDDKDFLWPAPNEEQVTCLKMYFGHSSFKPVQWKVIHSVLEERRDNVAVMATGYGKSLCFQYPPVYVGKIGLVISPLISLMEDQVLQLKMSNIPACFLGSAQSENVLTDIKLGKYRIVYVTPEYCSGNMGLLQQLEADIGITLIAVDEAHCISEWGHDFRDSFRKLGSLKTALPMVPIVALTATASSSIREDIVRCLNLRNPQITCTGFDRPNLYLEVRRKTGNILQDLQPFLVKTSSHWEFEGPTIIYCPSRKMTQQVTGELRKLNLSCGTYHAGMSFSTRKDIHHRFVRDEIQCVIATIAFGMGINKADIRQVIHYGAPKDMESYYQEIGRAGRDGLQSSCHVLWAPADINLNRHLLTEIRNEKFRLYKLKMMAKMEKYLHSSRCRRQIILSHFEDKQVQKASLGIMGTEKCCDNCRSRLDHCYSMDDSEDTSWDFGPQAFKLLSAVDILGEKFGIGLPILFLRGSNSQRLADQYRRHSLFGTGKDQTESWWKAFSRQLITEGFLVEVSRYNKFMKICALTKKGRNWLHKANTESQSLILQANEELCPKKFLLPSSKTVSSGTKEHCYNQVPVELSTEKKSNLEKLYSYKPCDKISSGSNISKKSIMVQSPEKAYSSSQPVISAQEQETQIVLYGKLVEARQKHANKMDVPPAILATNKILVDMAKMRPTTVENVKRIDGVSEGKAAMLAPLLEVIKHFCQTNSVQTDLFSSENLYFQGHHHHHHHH

Consider `C=Cc1nc2c(=O)c(N3CCN(C(=O)c4ncnc(C)c4O)CC3)c(CC)n(CC(=O)Nc3ccc(C(F)(F)F)cc3Cl)c2nc1C` [I-18, N-(2-chloro-4-(trifluoromethyl)phenyl)-2-(6-ethyl-7-(4-(5-hydroxy-6-methylpyrimidine-4-carbonyl)piperazin-1-yl)-3-methyl-8-oxo-2-vinylpyrido[2,3-b]pyrazin-5(8H)-yl)acetamide], for which the EC50 in assay [1] lay in the range of 0.5 to 2 µM. Further, the IC50 in assay [2] lay within 0.005 to 0.05 µM.
With `CCc1c(N2CCN(C(=O)c3ncnc(C)c3O)CC2)c(=O)c2nc(Cl)cnc2n1CC(=O)Nc1ccc(C(F)(F)F)cc1Cl` [I-19, N-(2-chloro-4-(trifluoromethyl)phenyl)-2-(2-chloro-6-ethyl-7-(4-(5-hydroxy-6-methylpyrimidine-4-carbonyl)piperazin-1-yl)-8-oxopyrido[2,3-b]pyrazin-5(8H)-yl)acetamide], the EC50 in assay [1] (setting [3]) was greater than 5 µM. In addition, in assay [2], the IC50 was 0.005 to 0.05 µM.
For `CCc1c(N2CCN(C(=O)c3ncnc(C)c3O)CC2)c(=O)c2nc(NC)cnc2n1CC(=O)Nc1ccc(C(F)(F)F)cc1Cl` [I-20, N-(2-chloro-4-(trifluoromethyl)phenyl)-2-(6-ethyl-7-(4-(5-hydroxy-6-methylpyrimidine-4-carbonyl)piperazin-1-yl)-2-(methylamino)-8-oxopyrido[2,3-b]pyrazin-5(8H)-yl)acetamide], in that order: greater than 5 µM and 0.005 to 0.05 µM.
For `C/C=C/c1nc2c(=O)c(N3CCN(C(=O)c4ncnc(C)c4O)CC3)c(CC)n(CC(=O)Nc3ccc(C(F)(F)F)cc3Cl)c2nc1C` [I-21, (E)N-(2-chloro-4-(trifluoromethyl)phenyl)-2-(6-ethyl-7-(4-(5-hydroxy-6-methylpyrimidine-4-carbonyl)piperazin-1-yl)-3-methyl-8-oxo-2-(prop-1-en-1-yl)pyrido[2,3-b]pyrazin-5(8H)-yl)acetamide], in that order: 0.5 to 2 µM and 0.005 to 0.05 µM.
Take `CCc1c(N2CCN(C(=O)c3ncnc(C)c3O)CC2)c(=O)c2nc(C(C)(C)O)c(C)nc2n1CC(=O)Nc1ccc(C(F)(F)F)cc1Cl` [I-22, N-(2-chloro-4-(trifluoromethyl)phenyl)-2-(6-ethyl-7-(4-(5-hydroxy-6-methylpyrimidine-4-carbonyl)piperazin-1-yl)-2-(2-hydroxypropan-2-yl)-3-methyl-8-oxopyrido[2,3-b]pyrazin-5(8H)-yl)acetamide]: the EC50 in assay [1] (setting [3]) is greater than 5 µM. Besides, the IC50 in assay [2] lay in the range of 0.05 to 0.1 µM.
As for `C=C(C)c1nc2c(=O)c(N3CCN(C(=O)c4ncnc(C)c4O)CC3)c(CC)n(CC(=O)Nc3ccc(C(F)(F)F)cc3Cl)c2nc1C` [I-23, N-(2-chloro-4-(trifluoromethyl)phenyl)-2-(6-ethyl-7-(4-(5-hydroxy-6-methylpyrimidine-4-carbonyl)piperazin-1-yl)-3-methyl-8-oxo-2-(prop-1-en-2-yl)pyrido[2,3-b]pyrazin-5(8H)-yl)acetamide], the EC50 in assay [1] was in the range of 0.5 to 2 µM. In addition, in assay [2], the IC50 lay within 0.005 to 0.05 µM.
For the compound `CCc1c(N2CCN(C(=O)c3ncnc(C)c3O)CC2)c(=O)c2nc(O)cnc2n1CC(=O)Nc1ccc(C(F)(F)F)cc1Cl` [I-24, N-(2-chloro-4-(trifluoromethyl)phenyl)-2-(6-ethyl-2-hydroxy-7-(4-(5-hydroxy-6-methylpyrimidine-4-carbonyl)piperazin-1-yl)-8-oxopyrido[2,3-b]pyrazin-5(8H)-yl)acetamide], the EC50 in assay [1] (setting [3]) is greater than 5 µM. Moreover, the IC50 in assay [2] lay in the range of 0.005 to 0.05 µM.
The like results for `CCc1c(N2CCN(C(=O)c3ncnc(C)c3O)CC2)c(=O)c2nc(CO)cnc2n1CC(=O)Nc1ccc(C(F)(F)F)cc1Cl` [I-25, N-(2-chloro-4-(trifluoromethyl)phenyl)-2-(6-ethyl-7-(4-(5-hydroxy-6-methylpyrimidine-4-carbonyl)piperazin-1-yl)-2-(hydroxymethyl)-8-oxopyrido[2,3-b]pyrazin-5(8H)-yl)acetamide] were, in that order, greater than 5 µM and 0.05 to 0.1 µM.
For `CCc1c(N2CCN(C(=O)c3ncnc(C)c3O)CC2)c(=O)c2nc(OC(F)F)cnc2n1CC(=O)Nc1ccc(C(F)(F)F)cc1Cl` [I-26, N-(2-chloro-4-(trifluoromethyl)phenyl)-2-(2-(difluoromethoxy)-6-ethyl-7-(4-(5-hydroxy-6-methylpyrimidine-4-carbonyl)piperazin-1-yl)-8-oxopyrido[2,3-b]pyrazin-5(8H)-yl)acetamide], in that order: greater than 5 µM and 0.1 to 0.5 µM.
The like results for `CCc1c(N2CCN(C(=O)c3ncnc(C)c3O)CC2)c(=O)c2nc(N3CCCC3=O)cnc2n1CC(=O)Nc1ccc(C(F)(F)F)cc1Cl` [I-27, N-(2-chloro-4-(trifluoromethyl)phenyl)-2-(6-ethyl-7-(4-(5-hydroxy-6-methylpyrimidine-4-carbonyl)piperazin-1-yl)-8-oxo-2-(2-oxopyrrolidin-1-yl)pyrido[2,3-b]pyrazin-5(8H)-yl)acetamide] were, in that order, greater than 5 µM and 0.005 to 0.05 µM.
Take `CCc1c(N2CCN(C(=O)c3ncnc(C)c3O)CC2)c(=O)c2nc(C(F)F)c(C)nc2n1CC(=O)Nc1ccc(C(F)(F)F)cc1Cl` [I-28, N-(2-chloro-4-(trifluoromethyl)phenyl)-2-(2-(difluoromethyl)-6-ethyl-7-(4-(5-hydroxy-6-methylpyrimidine-4-carbonyl)piperazin-1-yl)-3-methyl-8-oxopyrido[2,3-b]pyrazin-5(8H)-yl)acetamide]: in assay [1] (setting [3]), the EC50 was greater than 5 µM. Moreover, in assay [2], the IC50 was in the range of 0.005 to 0.05 µM.
For `CCc1c(N2CCN(C(=O)c3ncnc(C)c3O)CC2)c(=O)c2nc(N(C)C)c(C)nc2n1CC(=O)Nc1ccc(C(F)(F)F)cc1Cl` [I-29, N-(2-chloro-4-(trifluoromethyl)phenyl)-2-(2-(dimethylamino)-6-ethyl-7-(4-(5-hydroxy-6-methylpyrimidine-4-carbonyl)piperazin-1-yl)-3-methyl-8-oxopyrido[2,3-b]pyrazin-5(8H)-yl)acetamide], the EC50 in assay [1] fell in the range of 0.5 to 2 µM. Besides, the IC50 in assay [2] was in the range of 0.005 to 0.05 µM.
On to `CCc1c(N2CCN(C(=O)c3ncnc(C)c3O)CC2)c(=O)c2nc(N(C)C(C)=O)cnc2n1CC(=O)Nc1ccc(C(F)(F)F)cc1Cl` [I-30, N-(2-chloro-4-(trifluoromethyl)phenyl)-2-(6-ethyl-7-(4-(5-hydroxy-6-methylpyrimidine-4-carbonyl)piperazin-1-yl)-2-(N-methylacetamido)-8-oxopyrido[2,3-b]pyrazin-5(8H)-yl)acetamide], for which the EC50 in assay [1] (setting [3]) is greater than 5 µM. In addition, in assay [2], the IC50 fell in the range of 0.05 to 0.1 µM.
On to `CCc1c(N2CCN(C(=O)c3ncnc(C)c3O)CC2)c(=O)c2nc(NC(C)=O)cnc2n1CC(=O)Nc1ccc(C(F)(F)F)cc1Cl` [I-31, 2-(2-acetamido-6-ethyl-7-(4-(5-hydroxy-6-methylpyrimidine-4-carbonyl)piperazin-1-yl)-8-oxopyrido[2,3-b]pyrazin-5(8H)-yl)-N-(2-chloro-4-(trifluoromethyl)phenyl)acetamide], for which the EC50 in assay [1] (setting [3]) was greater than 5 µM. Also, in assay [2], the IC50 was in the range of 0.005 to 0.05 µM.
Consider `CCc1c(N2CCN(C(=O)c3[nH]nc(C)c3O)CC2)c(=O)c2ncc(C)nc2n1CC(=O)Nc1ccc(C(F)(F)F)cc1Cl` [I-32, N-(2-chloro-4-(trifluoromethyl)phenyl)-2-(6-ethyl-7-(4-(4-hydroxy-3-methyl-1H-pyrazole-5-carbonyl)piperazin-1-yl)-3-methyl-8-oxopyrido[2,3-b]pyrazin-5(8H)-yl)acetamide], for which the EC50 in assay [1] (setting [3]) is greater than 5 µM. Moreover, in assay [2], the IC50 lay in the range of 0.05 to 0.1 µM.
